Read-outs that look alike come from different tables or passages of the source.

Assay [1] is described as follows: Ferric reducing antioxidant power (FRAP) assay. On the procedure:
The FRAP assay was measured using the procedure previously described.

Assay [2] is described as follows: DPPH radical scavenging activity. The settings on record: n = 3. On the procedure:
This assay was determined using the procedure previously reported.
For orientation: The DPPH test is a chemical assay of radical scavenging.

Assay [3] can be described thus: ABTS radical scavenging assay. The settings on record: n = 3. Here is the method:
This assay was assessed using the procedure previously described.

Assay [4] addresses acetylcholinesterase (AChE) (Electrophorus electricus, UniProt O42275). The experiment in a line: biochemical.
Assay [5] is described as follows: Superoxide radical scavenging assay. Particulars: isolated compounds (Table 5); n = 3. Here is the method:
This assay was determined by the method previously described.

Setting [6] is: isolated compounds (Table 5), Trolox equivalents.
Where [7] appears, read: solvent extracts (Table 2), concentration causing 50% free radical scavenging.
Setting [8] is: isolated components (Table 6), read-out: IC50 AChE (converted).

Chain of acetylcholinesterase (AChE) (O42275 24-633): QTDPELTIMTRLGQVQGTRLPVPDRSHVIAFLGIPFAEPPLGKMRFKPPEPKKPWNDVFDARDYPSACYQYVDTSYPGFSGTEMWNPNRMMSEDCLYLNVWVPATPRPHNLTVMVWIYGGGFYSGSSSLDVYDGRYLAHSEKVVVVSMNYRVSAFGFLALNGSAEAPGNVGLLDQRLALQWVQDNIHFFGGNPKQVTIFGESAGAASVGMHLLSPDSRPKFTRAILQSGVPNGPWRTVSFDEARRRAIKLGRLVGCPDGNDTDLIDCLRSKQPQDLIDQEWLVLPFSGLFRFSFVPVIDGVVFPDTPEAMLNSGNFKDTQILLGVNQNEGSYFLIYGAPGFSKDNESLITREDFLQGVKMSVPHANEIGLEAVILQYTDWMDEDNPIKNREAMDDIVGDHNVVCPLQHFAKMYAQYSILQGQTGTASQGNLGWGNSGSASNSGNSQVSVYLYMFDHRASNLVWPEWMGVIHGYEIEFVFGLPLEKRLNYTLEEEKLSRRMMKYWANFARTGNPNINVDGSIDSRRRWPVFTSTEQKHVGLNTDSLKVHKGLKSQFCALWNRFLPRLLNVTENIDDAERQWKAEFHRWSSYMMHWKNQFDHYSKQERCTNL

In the case of `Cc1cc(C(C)(C)C)c(O)c(C(C)(C)C)c1` [BHT, butylated hydroxytoluene, reference compound], the “FRAP, TE” value in assay [1] (setting [6]) is recorded as 3997.23 ± 144.35 mM/g; in assay [1] (solvent extracts (Table 2), millimolar of Trolox equivalents per gram of extract) it was 4257.97 ± 145.90 mM/g. Also, the “SC50 DPPH” value in assay [2] (isolated compounds (Table 5)) was 36.99 ± 4.54 µg/mL; in assay [2] (setting [7]), 33.04 ± 2.12 µg/mL. The “SC50 ABTS” value was 17.36 ± 3.14 µg/mL in assay [3] (isolated compounds (Table 5)) and 14.09 ± 0.24 µg/mL in assay [3] (setting [7]).

Broadly, the IC50 is the concentration needed to halve the response being measured. Take `O=C(/C=C/c1ccc(O)c(O)c1)O[C@@H]1C[C@](O)(C(=O)O)C[C@@H](O)[C@H]1O` [Chlorogenic acid, chlorogenic acid, reference compound]: the half-maximal inhibitory concentration (IC50) in assay [4] (setting [8]) is 182 µM; in assay [4] (solvent extracts (Table 3), read-out: IC50 AChE (converted)), 188 µM.

As for `Oc1cc(O)c2c(c1)O[C@H](c1ccc(O)c(O)c1)[C@@H](O)C2` [Compound 1, catechin], the “FRAP, TE” value in assay [1] (setting [6]) stood at 8729.33 ± 424.55 mM/g. Further, the IC50 in assay [4] (setting [8]) was 90.8 µM. Moreover, the “SC50 DPPH” value in assay [2] (isolated compounds (Table 5)) was determined as 10.08 ± 3.09 µg/mL. In addition, the “SC50 Superoxide” value in assay [5] was determined as 64.43 ± 7.73 µg/mL. Further, the “SC50 ABTS” value in assay [3] (isolated compounds (Table 5)) is 2.23 ± 0.22 µg/mL.

On to `O=C(O)c1cc(O)c(O)c(O)c1` [Compound 2, gallic acid], for which, in assay [1] (setting [6]), the “FRAP, TE” value was 28,512.82 ± 43.27 mM/g. For the same molecule, the concentration for half-maximal inhibition (IC50) in assay [4] is 244 µM. Also, in assay [2] (isolated compounds (Table 5)), the “SC50 DPPH” value stood at 2.60 ± 0.67 µg/mL. Also, in assay [5], the “SC50 Superoxide” value amounted to 47.40 ± 3.01 µg/mL. Moreover, the “SC50 ABTS” value in assay [3] (isolated compounds (Table 5)) turned out to be 1.45 ± 0.14 µg/mL.

`O=c1c(O)c(-c2ccc(O)cc2)oc2cc(O)cc(O)c12` [Compound 3, kaempferol]: the “FRAP, TE” value in assay [1] (setting [6]) is 7912.47 ± 220.08 mM/g. Moreover, the “SC50 DPPH” value in assay [2] (isolated compounds (Table 5)) was determined as 12.48 ± 3.01 µg/mL. In addition, the “SC50 ABTS” value in assay [3] (isolated compounds (Table 5)) is 5.24 ± 0.45 µg/mL.

With `O=c1c(O)c(-c2ccc(O)c(O)c2)oc2cc(O)cc(O)c12` [Compound 4, quercetin], the “FRAP, TE” value in assay [1] (setting [6]) is 16,038.26 ± 86.89 mM/g. Besides, in assay [2] (isolated compounds (Table 5)), the “SC50 DPPH” value was 3.36 ± 0.58 µg/mL. The “SC50 Superoxide” value in assay [5] amounted to 31.89 ± 2.03 µg/mL. Further, the “SC50 ABTS” value in assay [3] (isolated compounds (Table 5)) is 3.15 ± 0.49 µg/mL.

Turning to `C[C@@H]1CC[C@]2(C(=O)O)CC[C@]3(C)C(=CC[C@@H]4[C@@]5(C)C[C@@H](O)[C@@H](O)C(C)(C)[C@@H]5CC[C@]43C)[C@@H]2[C@]1(C)O` [Compound 5, euscaphic acid], the “FRAP, TE” value in assay [1] (setting [6]) came to 8.67 ± 3.93 mM/g. Besides, the IC50 in assay [4] (setting [8]) is 23.8 µM. The “SC50 DPPH” value in assay [2] (isolated compounds (Table 5)) is above 400 µg/mL. Moreover, the “SC50 Superoxide” value in assay [5] is above 400 µg/mL. Also, in assay [3] (isolated compounds (Table 5)), the “SC50 ABTS” value was above 400 µg/mL.

In assay [4], `Oc1ccc(/C=C/c2cc(O)cc(O)c2)cc1` [Compound 6, resveratrol] had a 50% inhibitory concentration (IC50) of 354 µM.

Turning to `Oc1cc(O)c2c(c1)O[C@H](c1ccc(O)c(O)c1)[C@H](O)C2` [Compound 7, epicatechin], the “FRAP, TE” value in assay [1] (setting [6]) is reported as 13,122.77 ± 182.42 mM/g. Besides, the IC50 in assay [4] (setting [8]) was 184 µM. Moreover, the “SC50 DPPH” value in assay [2] (isolated compounds (Table 5)) turned out to be 2.78 ± 0.25 µg/mL. In assay [5], the “SC50 Superoxide” value was 41.76 ± 4.20 µg/mL. Moreover, in assay [3] (isolated compounds (Table 5)), the “SC50 ABTS” value was determined as 3.78 ± 0.03 µg/mL.

(Values after article PMC9312113, “Bioactive Components from Ampelopsis japonica with Antioxidant, Anti-α-Glucosidase, and Antiacetylcholinesterase Activities” (Antioxidants, 2022).)
